# Source: patent US20020137929A1, “1 - (3-heterocyclylphenyl) isothiourea, -isourea, -guanidine and -amidine herbicidal agents” (Intellectual Property Department, BASF Aktiengesellschaft, priority 1998, published 2002)
# How the values were obtained:
# AMBEL (Ragweed, Common) = test: Postemergence herbicidal evaluation; assay type: in vivo, Ambrosia artemisifolia
# Method in brief: (§1)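 Two-week seedlings sprayed postemergence at 40 psi; formulation: 1:1 acetone/water, 0.5% TWEEN 20; application ≈0.0156–0.500 kg/ha. Greenhouse grow-out, then 0–9 visual scoring at 4–5 weeks.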
# GALAP (Galium) = test: Postemergence herbicidal evaluation; assay type: in vivo, Galium aparine
# Method in brief: as §1
# [1] = system: TRZAWR (Wheat, Winter, cv Riband); test: Postemergence herbicidal evaluation; assay type: in vivo, Triticum aestivum
# Method in brief: as §1
# [2] = system: CHEAL (Lambsquarters, Common); test: Preemergence herbicidal evaluation; assay type: in vivo, Chenopodium album; settings: rated 4-5 weeks after treatment
# Method in brief: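 Rating at 4–5 wk post-spray on a 0–9 visual scale vs control. Application: aqueous acetone, ~0.0156–0.500 kg/ha, to soil surface after seeding, preemergence.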
# ORYSAT (Rice, Tebonnet) [3] = test: Rice tolerance to post-transplant applications, flooded paddy conditions (Table III); assay type: in vivo, Oryza sativa, (L.) Tebonnet
# Method in brief: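 Two ten-day-old Tebonnet seedlings transplanted into flooded silt loam (water 1.5 to 3 cm above soil); three days later the water surface was treated with compound in aqueous/acetone 50/50 at about 0.0313 to 0.500 kg/ha. Visual 0-9 injury rating versus control after three to four weeks in greenhouse.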
# MOOVA (Monochoria) = test: Postemergence weed control under flooded paddy conditions; assay type: in vivo, Monochoria vaginalis; settings: postemergence weeds, 3-4 weeks after treatment
# Method in brief: (§2)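 Containers holding 3–5 cm weeds and rice at 1.5–2.5 leaves are flooded to 1.5–3 cm above soil. Compound in 50/50 v/v aqueous/acetone is then added directly to the water, about 0.0313–0.500 kg/ha. Plants are kept in the greenhouse and rated 0–9 visually at 3–4 weeks.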
# [4] = system: SAGPY (Arrowhead (Pygmaea)); test: as above; assay type: in vivo, Sagittaria pygmaea; settings: postemergence weeds, 3-4 weeks after treatment
# Method in brief: as §2
# ORYSAT (Rice, Tebonnet) [5] = test: Rice tolerance to post-transplant applications, flooded paddy conditions (Table IV); assay type: in vivo, Oryza sativa, (L.) Tebonnet
# Description: Results of herbicide evaluation are expressed on a rating scale (0-9). The scale is based upon a visual observation of plant stand, vigor, malformation, size, chlorosis and overall plant appearance as compared with a control.
# Plastic containers containing weeds which are 3 to 5 cm tall and rice seedlings at the 1.5 to 2.5 leaf stage are flooded with water. The water is maintained at 1.5 to 3 cm above the soil surface for the duration of the experiment. Test compounds are applied as aqueous/ acetone mixtures 50/50 v/v directly into the flood water to provide the equivalent of about 0.0313 to 0.500 kg/ha of active ingredient. The treated containers are placed on greenhouse benches and cared for in accordance with conventional greenhouse procedures. Three to four weeks after treatment, the test is terminated and each container is examined and herbicidal effect rated according to the rating system provided in Example 37. The compounds evaluated are reported by compound number given in Example 37.
smiles,measurement,setting,value
"CCOC(=O)CN1C(=O)C[S+]([O-])/C1=N/c1cc(-n2c(=O)cc(C(F)(F)F)n(C)c2=O)c(F)cc1Cl (stereo not shown) [Compound 45, 2-{{2-Chloro-5-[3,6-dihydro-3-methyl-2,6-dioxo-4-(trifluoromethyl)-1(2H)-pyrimidinyl]-4-fluoro-phenyl}imino}-4-oxo-3-thiazolidineacetic acid, ethyl ester, 1-oxide]",Postemergence herbicidal rating AMBEL,"AMBEL (Ragweed, Common); Rate 0.0313 kg/ha",4.0
same,Postemergence herbicidal rating AMBEL,"AMBEL (Ragweed, Common); Rate 0.0625 kg/ha",9.0
same,Postemergence herbicidal rating GALAP,GALAP (Galium); Rate 0.0156 kg/ha,0.0
same,Postemergence herbicidal rating GALAP,GALAP (Galium); Rate 0.0313 kg/ha,0.0
same,Postemergence herbicidal rating GALAP,GALAP (Galium); Rate 0.0625 kg/ha,0.0
same,Postemergence herbicidal rating TRZAWR,[1]; Rate 0.0156 kg/ha,4.0
same,Postemergence herbicidal rating TRZAWR,[1]; Rate 0.0313 kg/ha,4.0
same,Postemergence herbicidal rating TRZAWR,[1]; Rate 0.0625 kg/ha,4.5
same,Preemergence herbicidal rating CHEAL,[2]; rate 0.0156 kg/ha,9.0
same,Preemergence herbicidal rating CHEAL,[2]; rate 0.0313 kg/ha,9.0
same,Preemergence herbicidal rating CHEAL,[2]; rate 0.0625 kg/ha,9.0
same,Preemergence herbicidal rating CHEAL,[2]; rate 0.1250 kg/ha,9.0
same,Preemergence herbicidal rating CHEAL,[2]; rate 0.2500 kg/ha,9.0
same,Herbicidal rating ORYSAT (rice tolerance),"ORYSAT (Rice, Tebonnet) [3]; 0.0313 kg/ha, post-transplant rice, flooded paddy, rated 3-4 weeks after treatment",3.0
same,Herbicidal rating ORYSAT (rice tolerance),"ORYSAT (Rice, Tebonnet) [3]; 0.0625 kg/ha, post-transplant rice, flooded paddy, rated 3-4 weeks after treatment",2.0
same,Herbicidal rating ORYSAT (rice tolerance),"ORYSAT (Rice, Tebonnet) [3]; 0.1250 kg/ha, post-transplant rice, flooded paddy, rated 3-4 weeks after treatment",2.0
same,Herbicidal rating ORYSAT (rice tolerance),"ORYSAT (Rice, Tebonnet) [3]; 0.2500 kg/ha, post-transplant rice, flooded paddy, rated 3-4 weeks after treatment",3.0
same,Herbicidal rating MOOVA,MOOVA (Monochoria); rate 0.0313 kg/ha,7.0
same,Herbicidal rating MOOVA,MOOVA (Monochoria); rate 0.0625 kg/ha,7.0
same,Herbicidal rating MOOVA,MOOVA (Monochoria); rate 0.1250 kg/ha,9.0
same,Herbicidal rating MOOVA,MOOVA (Monochoria); rate 0.2500 kg/ha,9.0
same,Herbicidal rating SAGPY,[4]; rate 0.0313 kg/ha,0.0
same,Herbicidal rating SAGPY,[4]; rate 0.0625 kg/ha,0.0
same,Herbicidal rating SAGPY,[4]; rate 0.1250 kg/ha,0.0
same,Herbicidal rating SAGPY,[4]; rate 0.2500 kg/ha,4.0
same,Herbicidal rating ORYSAT (rice tolerance),"ORYSAT (Rice, Tebonnet) [5]; rate 0.0313 kg/ha, flooded paddy, post-transplant rice, 3-4 weeks after treatment",3.0
same,Herbicidal rating ORYSAT (rice tolerance),"ORYSAT (Rice, Tebonnet) [5]; rate 0.0625 kg/ha, flooded paddy, post-transplant rice, 3-4 weeks after treatment",2.0
same,Herbicidal rating ORYSAT (rice tolerance),"ORYSAT (Rice, Tebonnet) [5]; rate 0.1250 kg/ha, flooded paddy, post-transplant rice, 3-4 weeks after treatment",2.0
same,Herbicidal rating ORYSAT (rice tolerance),"ORYSAT (Rice, Tebonnet) [5]; rate 0.2500 kg/ha, flooded paddy, post-transplant rice, 3-4 weeks after treatment",3.0
"Cn1c(C(F)(F)F)cc(=O)n(-c2cc(/N=C3/SCC(=O)N3CC(=O)O)c(Cl)cc2F)c1=O [Compound 52, 2-{{2-Chloro-5-[3,6-dihydro-3-methyl-2,6-dioxo-4-(trifluoromethyl)-1(2H)-pyrimidinyl]-4-fluoro-phenyl}imino}-4-oxo-3-thiazolidineacetic acid]",Postemergence herbicidal rating AMBEL,"AMBEL (Ragweed, Common); Rate 0.0158 kg/ha",1.0
same,Postemergence herbicidal rating AMBEL,"AMBEL (Ragweed, Common); Rate 0.0315 kg/ha",3.0
same,Postemergence herbicidal rating AMBEL,"AMBEL (Ragweed, Common); Rate 0.0630 kg/ha",5.0
same,Postemergence herbicidal rating GALAP,GALAP (Galium); Rate 0.0158 kg/ha,1.0
same,Postemergence herbicidal rating GALAP,GALAP (Galium); Rate 0.0315 kg/ha,4.0
same,Postemergence herbicidal rating GALAP,GALAP (Galium); Rate 0.0630 kg/ha,5.0
same,Postemergence herbicidal rating TRZAWR,[1]; Rate 0.0158 kg/ha,2.5
same,Postemergence herbicidal rating TRZAWR,[1]; Rate 0.0315 kg/ha,3.0
same,Postemergence herbicidal rating TRZAWR,[1]; Rate 0.0630 kg/ha,4.5
same,Preemergence herbicidal rating CHEAL,[2]; rate 0.0313 kg/ha,0.0
same,Preemergence herbicidal rating CHEAL,[2]; rate 0.0625 kg/ha,6.0
same,Preemergence herbicidal rating CHEAL,[2]; rate 0.1250 kg/ha,9.0
same,Preemergence herbicidal rating CHEAL,[2]; rate 0.2500 kg/ha,9.0
same,Herbicidal rating ORYSAT (rice tolerance),"ORYSAT (Rice, Tebonnet) [3]; in vivo",0.0
same,Herbicidal rating MOOVA,MOOVA (Monochoria); rate 0.2500 kg/ha,4.0
same,Herbicidal rating SAGPY,[4]; rate 0.2500 kg/ha,0.0
same,Herbicidal rating ORYSAT (rice tolerance),"ORYSAT (Rice, Tebonnet) [5]; in vivo",0.0
